Here are results for two compounds from patent US6649797B2, “Compounds and methods of use to treat infectious diseases” (The Picower Institute for Medical Research, priority 1996, dated 2003).

The subject of test [1] is nucleoplasmin-coated gold particles. Put plainly: Nuclear import of nucleoplasmin-coated gold particles.
For test [2], the system named is macrophage-tropic strain of HIV-1. In words: Inhibition of HIV-1 replication in peripheral blood-derived macrophages (IC50, RT or p24 in medium). Type of test: cell-based. The note with it: Human immunodeficiency virus 1, Macrophage, 120 h; 50% inhibition of viral growth; RT or p24 in medium about day 5 or 6 post-infection. On the procedure:
A quantitative measurement of the activity of the compounds of the invention to block the replication of HIV-1 in non-dividing cells can be determined by culture of a macrophage-tropic strain of HIV-1 on peripheral blood-derived macrophages. The cells are cultured for 5-6 days prior to infection in a medium consisting of DMEM supplemented with 10% type A/B human serum and 200 U/ml Macrophage Colony Stimulating Factor, with half the medium changed after 3 days, to reach a density of about 10^6 cells per 5 ml well. A macrophage-tropic viral stock may be grown on these cells. The concentration of infectious particles in the stock is estimated by measurement of p24 antigen concentration.
To test the effect of compounds of the invention on HIV-1 infection in the above-described culture system, the medium is removed and replaced with medium containing HIV-1 at a concentration of 1 ng of p24 (10^4 TCID50/ml (TCID=tissue culture infectious doses)) and a known concentration of the compound of the invention (the inhibitor). After 24 hours, the cultures are washed to remove non-adherent virus and the culture is re-fed with medium containing the inhibitor at the desired concentration. The amount of replication of HIV-1 is estimated by an assay of the reverse transcriptase activity or by an assay of the concentration of p24 antigen in the culture medium every 2-3 days throughout the post-infection period. In a preferred embodiment the anti-HIV potency of the candidate drug is measured by comparison of the concentration of reverse transcriptase (RT) or of p24 antigen in the medium of the treated and control cultures at the time of the peak of these values in non-treated control cultures, that is about day 5 or 6 post-infection. Repetition at various levels of inhibitor allows for the calculation of the concentration of inhibitor that achieves 50% inhibition of viral growth, IC50. Table I discloses the IC50 of various inhibitors.

For test [3], the system named is HIV-1ADA. Put plainly: Nuclear importation of HIV-1 DNA in monocytes (2-LTR circle PCR, Translocation Index). Type of test: cell-based. The conditions noted are these: 100 nM, 48 and 96 hours post infection. From the text: The effects of Compound No. 2 on the nuclear importation of HIV-1 preintegration complexes can be directly measured by detecting the presence of circularized duplex HIV-1 genomic DNA. These duplex circles can be readily detected by PCR amplification using primers which span the junction of the circularized HIV-1 genome. Bukrinsky, M. I., et al., 1992, Proc.Natl.Acad.Sci. 89:6580-84.
Briefly, the efficiency of nuclear translocation was estimated by the ratio between the 2-LTR- and pol-specific PCR products, which reflects the portion of 2-LTR circle DNA molecules as a fraction of the entire pool of intracellular HIV-1 DNA. Viral 2-LTR circle DNA is formed exclusively within the nucleus of infected cells and thus is a convenient marker of successful nuclear translocation. […]
PCR analysis of HIV-1 DNA: Total DNA was extracted from HIV-1-infected cells using the IsoQuick extraction kit (Microprobe Corp., Garden Grove, Calif.). DNA was then analyzed by PCR using primer pairs that amplify the following sequences: a fragment of HIV-1 (LTR/gag) that is the last one to be synthesized during reverse transcription and therefore represents the pool of full-length viral DNA molecules; a fragment of polymerase gene (pol); a 2-LTR junction region found only in HIV-1 2-LTR circle DNA molecules; or a fragment of the cellular a-tubulin gene. […]

pIC50: −log10 of the molar value. Where only a bound is given, the exact number is not on record here.

For `CC(=O)c1cc(Nc2cc(C)[n+](C)c(N)n2)cc(C(C)=O)c1` [CNI-0294, 2-Amino-4-(3,5-diacetylphenyl)amino-1,6-dimethylpyrimidinium chloride], the “block of nuclear import of nucleoplasmin-coated gold particles” value in test [1] is listed as “did not block”.

On to `CC(=O)c1cc(Nc2cc(C)[n+](C)c(N)n2)cc(C(C)=O)c1.[I-]` [Compound No. 2, 2-amino-4-(3,5-diacetylphenyl)amino-1,6-dimethylpyrimidinium iodide], for which, in test [2], the pIC50 – broadly, the IC50 on a negative log10 scale, so that one unit is a factor of ten – was 9.00. The “Translocation Index” value in test [3] (relative to drug free control) is “less than 10”. In addition, in test [3] (Human immunodeficiency virus 1, Monocyte), the inhibition – broadly, the percentage by which the read-out fell short of the control – at 0.1 µM is over 90%.
